{"source": "patent US20060143718A1", "about": "“Transgenic animals for monitoring water quality” (priority 2000, published 2006)", "key": {"EPRE constructs": {"tested_on": "EPRE constructs", "assay": "Transient transfection of LUC reporter constructs in zebrafish ZEM2S cells, EPRE constructs", "type": "cell-based"}, "[1]": {"conditions": "cited from earlier work"}, "AHRE reporter constructs": {"tested_on": "AHRE reporter constructs", "assay": "Transient transfection of LUC reporter constructs in zebrafish ZEM2S cells, AHRE constructs", "type": "cell-based"}, "MRE constructs": {"tested_on": "MRE constructs", "assay": "Transient transfection of LUC reporter constructs in zebrafish ZEM2S cells, MRE constructs", "type": "cell-based"}}}
{"molecule": "CC(C)(C)c1cc(O)ccc1O", "note": "[tBHQ]", "values": [{"measurement": "concentration achieving maximal LUC activity", "setting": "EPRE constructs", "value": 10, "unit": "µM"}]}
{"molecule": "Clc1cc2c(cc1Cl)Oc1cc(Cl)c(Cl)cc1O2", "note": "[TCDD, 2,3,7,8-tetrachlorodibenzo-p-dioxin]", "values": [{"measurement": "bioconcentration in fish", "setting": "[1]", "value": "100,000 fold"}, {"measurement": "bioconcentration", "setting": "[1]; fish, in the food chain", "value": "> 100,000 times"}, {"measurement": "concentration achieving maximal LUC activity", "setting": "AHRE reporter constructs", "value": 10, "unit": "nM"}]}
{"molecule": "[Cl][Cd][Cl]", "note": "[CdCl2]", "values": [{"measurement": "concentration achieving maximal LUC activity", "setting": "MRE constructs", "value": 30, "unit": "µM"}]}
